Reference: patent US20200345058A1, “Nicotine Oxalic Acid Formulations” (priority 2017, published 2020)

Details: 0.5% (w/w) nicotine or higher and 0.9% (w/w) tartaric acid or higher, ambient conditions
From the text: As used herein, weight percentage (w/w) refers to the weight of the individual component over the weight of the total formulation.

Q: For CN1CCCC1c1cccnc1.O=C(O)C(O)C(O)C(=O)O (stereo not shown) [nicotine bitartrate], which “solubility in propylene glycol (PG), vegetable glycerin (VG) or any mixture (in words)” value is on record?
A: The value was “will not produce a solution”.
